# Where two headings read alike, the source gives them in different places.
# Columns and labels:
# HT-1080 = assay: MTS assay, fibrosarcoma cells; conditions: Homo sapiens, HT-1080, 24 h
# PC-3 = assay: MTS assay, prostate cancer cells; conditions: Homo sapiens, PC-3, 24 h
# T-98-G = assay: MTS assay, glioblastoma cells; conditions: Homo sapiens, T98G, 24 h
# WM115 melanoma cells = assay: MTS cell viability assay, WM115; conditions: Homo sapiens, WM-115, 24 h
# MDA-MB-231 = assay: MTS assay, breast cancer cells; conditions: Homo sapiens, MDA-MB-231, 24 h
# UACC 903 melanoma cells [1] = assay: MTS cell viability assay, UACC 903; conditions: Homo sapiens, UACC-903, 24 h
# 1205 Lu melanoma cells [2] = assay: MTS cell viability assay, 1205 Lu; conditions: Homo sapiens, 24 h
# UACC 903 melanoma cells [3] = assay: Tumor development in nude mice, subcutaneous UACC 903, i.p. treatment; conditions: for melanoma tumor volume: 0.76 μmoles (3 ppm selenium) i.p. thrice per week, day 24, doses 3× lower than isothiocyanates; for tumor burden: UACC 903
# Caco-2 = assay: MTS assay, colon cancer cells; conditions: Homo sapiens, Caco-2, 24 h
# UACC 903 cells [4] = assay: Apo-ONE caspase-3/7 apoptosis assay; assay type: cell-based, human; conditions: 24 hours; for cellular apoptosis with increasing concentrations (caspase-3/7 activity, words): 5, 10, 15 μM
# Experimental: Apoptosis rates are measured using an Apo-ONE Homogenous caspase-3/7 Assay kit (Promega Corporation, Madison, Wis.).
# The isoselenocyanate compounds promote apoptosis in melanoma cells. […] The graphs in FIGS. 3A and 3B show fold increase in caspase-3/7 activity relative to DMSO vehicle treated cells on the x-axis. Results represent average of 3 independent experiments. Bars indicate SEM.
# UACC 903 cells [5] = assay: BrdU ELISA cellular proliferation; assay type: cell-based, human; conditions: 24 hours; for proliferative potential with increasing concentrations: 5, 10, 15 μM
# Experimental: Proliferation rate is measured using a BrdU ELISA kit (Roche Applied Sciences, Indianapolis, Ind.).
# BrdUrd is used to label cells for 4-6 hours. At 15 μM concentration, ISC-4 and ISC-6 reduced UACC 903 cellular proliferative potential by ˜80-90% compared to controls. Results represent the average of 3 independent experiments; bars represent SEM. The average value is represented as the percentage of control DMSO treated cells.
# Akt signaling pathway = assay: Western blot of Akt signaling pathway in cultured melanoma cells (FIG. 9); conditions: 24 hours
# UACC 903 cells [6] = assay: Cell cycle analysis (propidium iodide, FACScan); conditions: 24 hours
# [7] = Toxicity assessments in nude mice (blood parameters, histology); assay type: in vivo
# Description: Animals are sacrificed by CO2 asphyxiation and blood collected from each animal in plasma separator tubes with lithium heparin (BD Microtainer, BD, Franklin Lakes, N.J.) following cardiac puncture and analyzed for AST (aspartate aminotransferase), ALT, (alanyl aminotransferase), alkaline phosphatase, glucose and creatinine to ascertain liver, heart, kidney and pancreas related toxicity. For morphological examination of blood cells, whole blood is collected in microtainer tubes containing K2EDTA (BD Microtainer, BD, Franklin Lakes, N.J.) and RBC, WBC, lymphocytes, monocytes, eosinophils, platelets, total hemoglobin and hematocrit percentage analyzed. Blood is also microscopically examined for segregates, polychromatin bodies, and smudge cells. A portion of liver, heart, kidney, spleen, intestine pancreas and adrenal from each animal is formalin fixed and paraffin-embedded to examine toxicity-related changes in cell or organ morphology by H&E staining.
# 1205 Lu melanoma cells [8] = assay: Tumor development in nude mice, subcutaneous 1205 Lu, i.p. treatment; assay type: in vivo; conditions: 0.76 μmoles i.p. thrice per week
# Description: (Monday, Wednesday and Friday).
# 1205LU (Melanoma) = assay: IC-50 in various cell lines (Table V), 1205LU; assay type: cell-based; conditions: Homo sapiens
# MDA-MB 231 (breast) = assay: IC-50 in various cell lines (Table V), MDA-MB 231; assay type: cell-based; conditions: Homo sapiens
# [9] = test system: FF2441 (fibroblast cells); assay: IC-50 in various cell lines (Table V), FF2441; assay type: cell-based; conditions: Homo sapiens
# UACC-903 (Melanoma) = assay: IC-50 in various cell lines (Table V), UACC-903; assay type: cell-based; conditions: Homo sapiens
# CaCO2 (Colon Carcinoma) = assay: IC-50 in various cell lines (Table V), CaCO2; assay type: cell-based; conditions: Homo sapiens, Caco-2
# [10] = test system: HT1080 (Soft Tissue Sarcoma); assay: IC-50 in various cell lines (Table V), HT1080; assay type: cell-based; conditions: Homo sapiens, HT-1080
# PC-3 (Prostate) = assay: IC-50 in various cell lines (Table V), PC-3; assay type: cell-based
# [11] = test system: IGROV-1 (ovarian carcinoma); assay: IC-50 in various cell lines (Table V), IGROV-1; assay type: cell-based; conditions: Homo sapiens
# A549 (lung) = assay: IC-50 in various cell lines (Table V), A549; assay type: cell-based; conditions: Homo sapiens
# UACC 903M cells = assay: IC50 of NAC conjugate in UACC 903M cells; assay type: cell-based
# [12] = 0.76 μmoles i.p. thrice per week
SMILES,IC50 (HT-1080) [µM],IC50 (PC-3) [µM],IC50 (T-98-G) [µM],IC50 (WM115 melanoma cells) [µM],IC50 (MDA-MB-231) [µM],IC50 (UACC 903 melanoma cells [1]) [µM],IC50 (1205 Lu melanoma cells [2]) [µM],IC50 (Caco-2) [µM],G0/G1 cell population (UACC 903 cells [6]; 15 μM),G2/M cell population (UACC 903 cells [6]; 15 μM),S cell population (UACC 903 cells [6]; 15 μM),subG0/G1 cell population (UACC 903 cells [6]; 15 μM),also measured
"S=C=NCc1ccccc1 [BITC, Benzyl isothiocyanate, reference compound]",> 50,> 50,> 100,13,42 ± 3,15,> 25,15 ± 2,–,–,–,–,"effect on tumor size (UACC 903 melanoma cells [3]; 2.5 micromoles i.p. thrice per week, FIG. 18C): most effective"
"[Se]=C=NCc1ccccc1 [ISC-1, Benzyl Isoselenocyanate]",13 ± 3,24 ± 1,43 ± 4,> 25,29 ± 2,16,> 25,13 ± 3,–,–,–,–,"effect on tumor size (UACC 903 melanoma cells [3]; 0.76 μmoles i.p. thrice per week, Example 30): failed to show any effect"
"[Se]=C=NCCc1ccccc1 [ISC-2, Phenylethyl Isoselenocyanate]",12 ± 3,16 ± 1,24 ± 1,8,20 ± 3,12,18,11 ± 1,–,–,–,–,melanoma tumor volume (UACC 903 melanoma cells [3]): reduce tumor volume
"[Se]=C=NCCCCCCc1ccccc1 [ISC-6, Phenylhexyl Isoselenocyanate]",12 ± 1,14 ± 1,23 ± 2,7,22 ± 2,10 ± 1,7,10 ± 1,41.6,26.1,32.2,15.9,"cellular apoptosis with increasing concentrations (caspase-3/7 activity, words) (UACC 903 cells [4]): increase cellular apoptosis; fold more effective than PBITC at inducing apoptosis (UACC 903 cells [4]; caspase-3/7 activity, 5-15 μM): ~2 fold; proliferative potential with increasing concentrations (UACC 903 cells [5]): decreased proliferative potential; fold more effective than PBITC or PHITC at inhibiting cellular proliferation (UACC 903 cells [5]; 5-15 μM): ~2 fold; concentration completely inhibiting the Akt3 pathway (Western blot) (Akt signaling pathway): 10 µM; melanoma tumor volume (UACC 903 melanoma cells [3]): reduce tumor volume; G0/G1 cell population (UACC 903 cells [6]; 5 μM): 56.8; G2/M cell population (UACC 903 cells [6]; 5 μM): 13.5; S cell population (UACC 903 cells [6]; 5 μM): 31.5; subG0/G1 cell population (UACC 903 cells [6]; 5 μM): 1.5; G0/G1 cell population (UACC 903 cells [6]; 10 μM): 44.9; G2/M cell population (UACC 903 cells [6]; 10 μM): 24.5; S cell population (UACC 903 cells [6]; 10 μM): 30.5; subG0/G1 cell population (UACC 903 cells [6]; 10 μM): 7.6"
"S=C=NCCCCc1ccccc1 [PBITC, phenylbutylisothiocyanate, reference compound]",15 ± 1,24 ± 2,35 ± 1,7 ± 1,27 ± 2,15 ± 1,19 ± 5,27 ± 2,42.1,27.4,30.5,20.8,"blood SGOT, SGPT, alkaline phosphatase, glucose and creatinine ([7]; 0.76 μmoles i.p. 3 times per week for 3 weeks, compared to vehicle DMSO): did not alter parameters; basal urea nitrogen (BUN), creatinine and glucose levels ([7]; treated versus control animals): not significantly different; cellular apoptosis with increasing concentrations (caspase-3/7 activity, words) (UACC 903 cells [4]): increase cellular apoptosis; tumor burden (1205 Lu melanoma cells [8]): ineffective at reducing tumor burden; proliferative potential with increasing concentrations (UACC 903 cells [5]): decreased proliferative potential; tumor burden (UACC 903 melanoma cells [3]; [12]): ineffective at reducing tumor burden; G0/G1 cell population (UACC 903 cells [6]; 5 μM): 37.4; G2/M cell population (UACC 903 cells [6]; 5 μM): 34.7; S cell population (UACC 903 cells [6]; 5 μM): 27.8; subG0/G1 cell population (UACC 903 cells [6]; 5 μM): 4.9; G0/G1 cell population (UACC 903 cells [6]; 10 μM): 37.2; G2/M cell population (UACC 903 cells [6]; 10 μM): 31.9; S cell population (UACC 903 cells [6]; 10 μM): 30.9; subG0/G1 cell population (UACC 903 cells [6]; 10 μM): 10.4"
"S=C=NCCc1ccccc1 [PEITC, phenylethyl isothiocyanate, reference compound]",15 ± 1,24 ± 2,> 100,12 ± 1,38 ± 6,12 ± 1,24 ± 2,14 ± 2,–,–,–,–,–
"S=C=NCCCCCCc1ccccc1 [PHITC, Phenylhexylisothiocyanate]",29 ± 3,17 ± 1,26 ± 2,8 ± 1,24 ± 2,15 ± 2,11 ± 4,49 ± 9,40.7,29.7,29.6,12.5,"cellular apoptosis with increasing concentrations (caspase-3/7 activity, words) (UACC 903 cells [4]): increase cellular apoptosis; tumor burden (1205 Lu melanoma cells [8]): ineffective at reducing tumor burden; proliferative potential with increasing concentrations (UACC 903 cells [5]): decreased proliferative potential; tumor burden (UACC 903 melanoma cells [3]; [12]): ineffective at reducing tumor burden; G0/G1 cell population (UACC 903 cells [6]; 5 μM): 58.7; G2/M cell population (UACC 903 cells [6]; 5 μM): 13.1; S cell population (UACC 903 cells [6]; 5 μM): 28.2; subG0/G1 cell population (UACC 903 cells [6]; 5 μM): 1.4; G0/G1 cell population (UACC 903 cells [6]; 10 μM): 43.8; G2/M cell population (UACC 903 cells [6]; 10 μM): 27.5; S cell population (UACC 903 cells [6]; 10 μM): 28.7; subG0/G1 cell population (UACC 903 cells [6]; 10 μM): 5.4"
"N#C[Se]CCCCCCc1ccccc1 [PHSC, Phenylhexyl selenocyanate]",–,–,–,–,–,–,–,–,61.4,11.5,26.9,2.4,–
"C[S+]([O-])CCCCN=C=[Se] (stereo not drawn) [SFN Iso Se, 1-isoselenocyanato-4-(methylsulfinyl)butane]",–,–,–,–,–,–,–,–,–,–,–,–,"IC50 (1205LU (Melanoma); 1205Lu): 39.2 ± 2 µM; IC50 (MDA-MB 231 (breast); MDA-MB-231): 20 ± 0.46 µM; IC50 ([9]; FF2441): > 50 µM; IC50 (UACC-903 (Melanoma); UACC-903): 17 ± 0.95 µM; IC50 (CaCO2 (Colon Carcinoma)): 16 ± 0.4 µM; IC50 [10]: 25.6 ± 1.82 µM; IC50 (PC-3 (Prostate)): 24.8 ± 0.58 µM; IC50 ([11]; IGROV-1): > 50 µM; tumor development (UACC 903 melanoma cells [3]; 0.76 micromoles (3 ppm selenium) i.p., compared to controls, FIG. 14A): inhibition of tumor development; IC50 (A549 (lung); A549): 35 ± 1.7 µM"
"C[S+]([O-])CCCCN=C=S (stereo not drawn) [SFN, sulforaphane, reference compound]",–,–,–,–,–,–,–,–,–,–,–,–,"IC50 (1205LU (Melanoma); 1205LU (Melanoma), read-out: IC-50): > 50 µM; IC50 (MDA-MB 231 (breast); MDA-MB 231 (breast), read-out: IC-50): 57 ± 5 µM; IC50 ([9]; FF2441 (fibroblast cells), read-out: IC-50): > 50 µM; IC50 (UACC-903 (Melanoma); UACC-903 (Melanoma), read-out: IC-50): 40 ± 0.89 µM; IC50 (CaCO2 (Colon Carcinoma); CaCO2 (Colon Carcinoma), read-out: IC-50): 48 ± 5.9 µM; IC50 ([10]; HT1080 (Soft Tissue Sarcoma), read-out: IC-50): > 50 µM; IC50 (PC-3 (Prostate); PC-3 (Prostate), read-out: IC-50): > 50 µM; IC50 ([11]; IGROV-1 (ovarian carcinoma), read-out: IC-50): > 50 µM; IC50 (A549 (lung); A549 (lung), read-out: IC-50): 73 ± 3.6 µM"
CC(=O)NC(CSC(=[Se])NCCCCc1ccccc1)C(=O)O (stereo not drawn) [compound 5],–,–,–,–,–,–,–,–,–,–,–,–,IC50 (UACC 903M cells): 17 ± 2 µM

# Source: patent publication US20130178523A1, “ANTI-CANCER COMPOSITIONS AND METHODS” (THE PENN STATE RESEARCH FOUNDATION, priority 2007, published 2013)
